From PubChem BioAssay AID306 (DTP/NCI, 2004)
“And” between values parts separate entries of the source, which are not always exact repeats. Equal values may be shown once. Toxic doses and inconclusive results are not listed.

Test system: BDF1 mice, L1210 Methyl-GAG-resistant leukemia, survival T/C
Assay: NCI In Vivo Anticancer Drug Screen. Data for tumor model L1210 Leukemia resistant to Methyl-GAG; NSC 32946 (subcutaneous) in B6D2F1 (BDF1) mice
Details: endpoint: mean survival time, higher = longer survival
Protocol: The antitumor activity of compounds was measured in mice bearing transplantable tumors. Survival or tumor size were measured and the results are expressed as the measurement made in the treated group (T) divided by the measurement made in the vehicle treated control group (C). The tumor model used in this assay is L1210 Leukemia resistant to Methyl-GAG; NSC 32946 (subcutaneous) in B6D2F1 (BDF1) mice

[1] = dose: 25.0 mg/kg/injection, schedule: Q01DX Z (ip), vehicle: carboxymethylcellulose (CMC)
[2] = dose: 100.0 mg/kg/injection, schedule: Q01DX Z (ip), vehicle: carboxymethylcellulose (CMC)
[3] = dose: 200.0 mg/kg/injection, schedule: Q01DX Z (ip), vehicle: carboxymethylcellulose (CMC)
[4] = dose: 12.5 mg/kg/injection, schedule: Q01DX Z (ip), vehicle: carboxymethylcellulose (CMC)
[5] = dose: 50.0 mg/kg/injection, schedule: Q01DX Z (ip), vehicle: carboxymethylcellulose (CMC)
[6] = dose: 12.5 mg/kg/injection, schedule: Q01DX Z (ip), vehicle: saline
[7] = dose: 25.0 mg/kg/injection, schedule: Q01DX Z (ip), vehicle: saline
[8] = dose: 62.5 mg/kg/injection, schedule: Q01DX Z (ip), vehicle: carboxymethylcellulose (CMC)
[9] = dose: 125.0 mg/kg/injection, schedule: Q01DX Z (ip), vehicle: carboxymethylcellulose (CMC)
[10] = dose: 500.0 mg/kg/injection, schedule: Q01DX Z (ip), vehicle: carboxymethylcellulose (CMC)
[11] = dose: 1000.0 mg/kg/injection, schedule: Q01DX Z (ip), vehicle: carboxymethylcellulose (CMC)
[12] = dose: 31.0 mg/kg/injection, schedule: Q01DX Z (ip), vehicle: carboxymethylcellulose (CMC)

With `C[C@]12C=CC(=O)C=C1CC[C@@H]1[C@@H]2C(=O)C[C@@]2(C)[C@H]1CC[C@]2(O)C(=O)CO` the T/C (dose: 25.0 mg/kg/injection, schedule: Q01DX Z (sc), vehicle: steriod suspending solution) was 91 % of control and 115 % of control, the T/C (dose: 50.0 mg/kg/injection, schedule: Q01DX Z (sc), vehicle: steriod suspending solution) was 103 % of control and the T/C (dose: 100.0 mg/kg/injection, schedule: Q01DX Z (sc), vehicle: steriod suspending solution) was 150 % of control. For the same molecule, the T/C (dose: 200.0 mg/kg/injection, schedule: Q01DX Z (sc), vehicle: steriod suspending solution) was 115 % of control and the T/C (dose: 400.0 mg/kg/injection, schedule: Q01DX Z (sc), vehicle: steriod suspending solution) was 112 % of control and 118 % of control.

In the case of `O=c1[nH]c(=O)n(C2CC(O)C(CO)O2)cc1F` (stereo not drawn), the T/C [1] was 112 % of control, the T/C [2] was 121 % of control and the T/C [3] was 87 % of control and 103 % of control.

`CS(=O)(=O)OCCCl` was tested, and the T/C [4] was 89 % of control, the T/C [1] was 96 % of control and the T/C [5] was 92 % of control. The T/C [2] was 113 % of control.

With `Cn1cc(NC(=O)c2cc(NC(=O)CN=C(N)N)cn2C)cc1C(=O)NCCC(=N)N` the T/C (dose: 6.3 mg/kg/injection, schedule: Q01DX Z (ip), vehicle: saline) was 112 % of control, the T/C [6] was 102 % of control and the T/C [7] was 91 % of control.

`N=C(N)c1ccc(Nc2ccc(C(=N)N)cc2)cc1` was tested, and the T/C (dose: 3.1 mg/kg/injection, schedule: Q01DX Z (ip), vehicle: methylcellulose (MC)) was 98 % of control and 102 % of control, the T/C (dose: 6.25 mg/kg/injection, schedule: Q01DX Z (ip), vehicle: methylcellulose (MC)) was 107 % of control and the T/C (dose: 6.3 mg/kg/injection, schedule: Q01DX Z (ip), vehicle: methylcellulose (MC)) was 93 % of control. The T/C (dose: 12.5 mg/kg/injection, schedule: Q01DX Z (ip), vehicle: methylcellulose (MC)) was 97 % of control.

For `O=C1C(NC(=O)C2CCCCC2)=C(N2CC2)C(=O)C(NC(=O)C2CCCCC2)=C1N1CC1`, the T/C [1] was 100 % of control, the T/C [5] was 96 % of control and the T/C [2] was 114 % of control. The T/C [3] was 108 % of control and 118 % of control, the T/C (dose: 400.0 mg/kg/injection, schedule: Q01DX Z (ip), vehicle: carboxymethylcellulose (CMC)) was 120 % of control and the T/C (dose: 800.0 mg/kg/injection, schedule: Q01DX Z (ip), vehicle: carboxymethylcellulose (CMC)) was 104 % of control.

In the case of `C[C@H](N)C(=O)N[C@@H]1[C@H]2C(=C(O)C[C@@H](O)[C@@H]2O)C(=O)O[C@@H]1C`, the T/C (dose: 31.25 mg/kg/injection, schedule: Q01DX Z (ip), vehicle: saline) was 96 % of control, the T/C (dose: 125.0 mg/kg/injection, schedule: Q01DX Z (ip), vehicle: saline) was 102 % of control and the T/C (dose: 250.0 mg/kg/injection, schedule: Q01DX Z (ip), vehicle: saline) was 116 % of control. For the same molecule, the T/C (dose: 2000.0 mg/kg/injection, schedule: Q01DX Z (ip), vehicle: saline) was 96 % of control.

For `C[C@@H]1C[C@H]2CC[C@H](O2)[C@H](C)C(=O)O[C@@H](C)C[C@@H]2CC[C@@H](O2)[C@@H](C)C(=O)O[C@H](C)C[C@H]2CC[C@H](O2)[C@H](C)C(=O)O[C@@H](C)C[C@@H]2CC[C@@H](O2)[C@@H](C)C(=O)O1`, the T/C [1] was 97 % of control, the T/C [5] was 91 % of control and the T/C [2] was 91 % of control. The T/C [3] was 97 % of control.

With `N#CCSc1ncnc2nc[nH]c12` the T/C [4] was 101 % of control, the T/C [1] was 110 % of control and the T/C [5] was 123 % of control.

In the case of `N=[N+]=CC(=O)OCC(N)C(=O)O` (stereo not drawn), the T/C (dose: 1.56 mg/kg/injection, schedule: Q01DX Z (ip), vehicle: saline) was 104 % of control, the T/C (dose: 3.12 mg/kg/injection, schedule: Q01DX Z (ip), vehicle: saline) was 104 % of control and the T/C (dose: 4.7 mg/kg/injection, schedule: Q01DX Z (ip), vehicle: saline) was 100 % of control. The T/C [6] was 156 % of control and 150 % of control, the T/C (dose: 18.8 mg/kg/injection, schedule: Q01DX Z (ip), vehicle: saline) was 104 % of control and the T/C [7] was 116 % of control.

With `C=CC(CN1CC1)OC(C)=O` (stereo not drawn) the T/C (dose: 0.95 mg/kg/injection, schedule: Q01DX Z (ip), vehicle: carboxymethylcellulose (CMC)) was 100 % of control, the T/C (dose: 1.9 mg/kg/injection, schedule: Q01DX Z (ip), vehicle: carboxymethylcellulose (CMC)) was 118 % of control and the T/C (dose: 3.8 mg/kg/injection, schedule: Q01DX Z (ip), vehicle: carboxymethylcellulose (CMC)) was 118 % of control. The T/C (dose: 7.5 mg/kg/injection, schedule: Q01DX Z (ip), vehicle: carboxymethylcellulose (CMC)) was 120 % of control.

`OCC1OC(n2cnc3c(Cl)ncnc32)C(O)C1O` (stereo not drawn) was tested, and the T/C [8] was 96 % of control, the T/C [9] was 94 % of control and the T/C (dose: 250.0 mg/kg/injection, schedule: Q01DX Z (ip), vehicle: carboxymethylcellulose (CMC)) was 99 % of control. For the same molecule, the T/C [10] was 88 % of control and 102 % of control and the T/C [11] was 91 % of control.

With `C[C@]12CCC(=O)C=C1CC[C@@H]1[C@@H]2CC[C@@]2(C)[C@H]1CC[C@]2(C)O` the T/C (dose: 16.0 mg/kg/injection, schedule: Q01DX Z (sc), vehicle: steriod suspending solution) was 97 % of control, the T/C (dose: 32.0 mg/kg/injection, schedule: Q01DX Z (sc), vehicle: steriod suspending solution) was 105 % of control and the T/C (dose: 62.5 mg/kg/injection, schedule: Q01DX Z (sc), vehicle: steriod suspending solution) was 89 % of control. For the same molecule, the T/C (dose: 63.0 mg/kg/injection, schedule: Q01DX Z (sc), vehicle: steriod suspending solution) was 97 % of control and the T/C (dose: 125.0 mg/kg/injection, schedule: Q01DX Z (sc), vehicle: steriod suspending solution) was 95 % of control and 101 % of control.

With `CCCCNc1ncnc2c1cnn2C` the T/C (dose: 4.0 mg/kg/injection, schedule: Q01DX Z (ip), vehicle: carboxymethylcellulose (CMC)) was 106 % of control, the T/C (dose: 8.0 mg/kg/injection, schedule: Q01DX Z (ip), vehicle: carboxymethylcellulose (CMC)) was 106 % of control and the T/C (dose: 8.8 mg/kg/injection, schedule: Q01DX Z (ip), vehicle: carboxymethylcellulose (CMC)) was 102 % of control. For the same molecule, the T/C (dose: 15.6 mg/kg/injection, schedule: Q01DX Z (ip), vehicle: carboxymethylcellulose (CMC)) was 110 % of control, the T/C [12] was 112 % of control and the T/C (dose: 31.2 mg/kg/injection, schedule: Q01DX Z (ip), vehicle: carboxymethylcellulose (CMC)) was 107 % of control. The T/C [8] was 100 % of control and the T/C [9] was 98 % of control.

`O=c1[nH]c(=O)n(C2CC(O)C(CO)O2)cc1Br` (stereo not drawn) was tested, and the T/C [12] was 95 % of control, the T/C (dose: 63.0 mg/kg/injection, schedule: Q01DX Z (ip), vehicle: carboxymethylcellulose (CMC)) was 92 % of control and the T/C [9] was 113 % of control. For the same molecule, the T/C [10] was 118 % of control and the T/C [11] was 120 % of control.

For `COS(C)(=O)=O`, the T/C (dose: 12.5 mg/kg/injection, schedule: Q01DX Z (ip), vehicle: water) was 101 % of control, the T/C (dose: 25.0 mg/kg/injection, schedule: Q01DX Z (ip), vehicle: water) was 98 % of control and 99 % of control and the T/C (dose: 50.0 mg/kg/injection, schedule: Q01DX Z (ip), vehicle: water) was 103 % of control and 112 % of control.

`Nc1nc(SCc2ccccc2)c2[nH]cnc2n1` was tested, and the T/C (dose: 6.25 mg/kg/injection, schedule: Q01DX Z (ip), vehicle: carboxymethylcellulose (CMC)) was 104 % of control and the T/C [4] was 154 % of control.

In the case of `C[C@]12CC[C@H](OC3OC(CO)C(O)C(O)C3O)C[C@H]1CC[C@@H]1[C@@H]2CC[C@]2(C)[C@@H](C3=CCOC3=O)CC[C@]12O` (stereo partly drawn), the T/C (dose: 0.06 mg/kg/injection, schedule: Q01DX Z (ip), vehicle: saline) was 94 % of control, the T/C (dose: 0.12 mg/kg/injection, schedule: Q01DX Z (ip), vehicle: saline) was 92 % of control and the T/C (dose: 0.25 mg/kg/injection, schedule: Q01DX Z (ip), vehicle: saline) was 91 % of control. The T/C (dose: 0.5 mg/kg/injection, schedule: Q01DX Z (ip), vehicle: saline) was 91 % of control, the T/C (dose: 4.0 mg/kg/injection, schedule: Q01DX Z (ip), vehicle: saline) was 90 % of control and the T/C (dose: 16.0 micrograms/kg/injection, schedule: Q01DX Z (ip), vehicle: saline) was 97 % of control. For the same molecule, the T/C (dose: 32.0 micrograms/kg/injection, schedule: Q01DX Z (ip), vehicle: saline) was 102 % of control, the T/C (dose: 1000.0 micrograms/kg/injection, schedule: Q01DX Z (ip), vehicle: saline) was 107 % of control and the T/C (dose: 2000.0 micrograms/kg/injection, schedule: Q01DX Z (ip), vehicle: saline) was 105 % of control.
